Values of other authors, collected in patent US6703389B2, “Method of treating chronic pain” (Pharmacia & Upjohn Company, priority 1999, dated 2004).

Tests used:
[1] = system: norepinephrine reuptake compared to serotonin reuptake; conditions: rat brain synaptosomes, literature
[2] = literature (Leonard 1997)
[3] = mice, literature (Brunello and Racagni 1998)

Structure (SMILES)	pharmacological selectivity for inhibiting norepinephrine reuptake compared to serotonin reuptake, ratio of Ki values [1]	effect in the 8-OH-DPAT hypothermia test [2]	effect on resperine-induced blepharospasm and hypothermia [3]
CNCC(O)CC12CCC(c3ccccc31)c1ccccc12 (stereo not drawn) [oxaprotiline]	about 4166		
CCOc1ccccc1OC(c1ccccc1)C1CNCCO1 (racemic) [Reboxetine, 2-[(2-ethoxyphenoxy)(phenyl)methyl]morpholine]		ineffective	prevent
